Key:
clams = conditions: sulfuric acid and low pH, previously found; cited from earlier work
algae = assay: Removal of algae from treated water; type: in vivo; conditions: pH 6.5
Source text: In one example, pH 6.5 removed algae in 15 days.

cyanobacteria = assay: Treatment of Daybreak reservoirs infested with cyanobacteria; type: in vivo
Source text: (§1) As a control, Jordan Canal water, which was infected with cyanobacteria from Utah Lake, is directed to Daybreak and other areas. While treatment controlled cyanobacteria in Daybreak reservoirs, other areas that receive water from the Jordan Canal were still testing positive for cyanobacteria. As such, the treatment of sulfurous acid controlled the cyanobacteria in view of water ways further away (e.g., Blackridge Reservoir, Jordan River Narrows, and Wheeler Farm East Canal) still containing cyanobacteria. […] Since cyanobacteria are harmful to fish, the sulfurous acid actually improves the health of fish in the treated water.

bryozoa = assay: Open-water pond treatment, mortality of bryozoa; type: in vivo
Procedure: (§2) Applicant have performed studies and determined that the present water treatment methods with sulfurous acid provide about 100% kill of bryozoa in 48 hours, 100% kill of zebra mussels in 5 days, and 100% kill of Asiatic clams in less than one month. In these studies, the protocols introduced sulfurous acid into open water to achieve water pH levels between 6.0 and 6.5 in the treatment water within a control distance from the location of introduction. Accordingly, these pH ranges are sufficient to control these aquatic species. This allows these relatively higher pH ranges to control the aquatic species without compromising the body of water. The cyanobacteria can have a 100% kill from the sulfurous acid with a pH of the treated water between 6-7, or more preferably between 6.8-7.
(§3) In view of the disclosure provided herein, it is now possible to achieve about 100% kill rates on these aquatic pest species in any size body of water at ambient temperature and pressure. The water treatment is performed through the addition of sufficient sulfurous acid (as well as any sulfites and bisulfites in the sulfurous acid) so as to reduce pH between about 6.0-about 6.5 over hours to days to weeks. […] The mortality of each aquatic pest was measured progressively over time until all the aquatic pests in the pond were determined to be dead or at a level so low as to be unmeasurable.

zebra mussels = assay: Open-water pond treatment, mortality of zebra mussels; type: in vivo
Procedure: as §2, §3

aquatic pests = assay: Water treatment, control of aquatic pests in general; type: in vivo
Source text: Thus, sulfurous acid can be used to treat water to control existing aquatic pest as well as condition the water to inhibit spreading of any aquatic pests introduced therein. This can inhibit spreading from a first body of water to a second body of water, such as from a pond to a stream or from a stream into a pond. While providing the sulfurous acid prohibits or prevents aquatic pest infestations or can be used as a prophylactic against aquatic pest infestations, application to the water can be done for the desire to control any aquatic pest in the water or soil in contact with the water (e.g., river bed, pond bed, shore, or other soil in direct contact with the water), or that may come into contact therewith. Also, the sulfurous acid can treat the surfaces of any water system or any surface of any object in the water to inhibit aquatic pest from attaching thereto, remove the aquatic pests from the surface (e.g., descale) or otherwise inhibit the aquatic pest from contaminating the water system. Thus, it may be desirable to apply the sulfurous acid to a water or soil contacting the water or structure confining the water as desired.
Thus, exhaust products from burning sulfur and reaction products of the exhaust products (e.g., reaction products from reacting sulfur dioxide with water or reacting other sulfur-containing substance in the exhaust with water) and water can be used to control the aquatic pets. In one aspect, sulfuric acid is specifically not used in the methods described herein.
Thus, introducing the exhaust products from burning sulfur that has sulfur dioxide (e.g., exhaust directly from a sulfur burn chamber) and reaction products of the exhaust products and water may reduce the calcium in the water in order to control the pests. This may include reducing the overall free calcium level, such as reducing carbonate and bicarbonate levels. In one aspect, the ability of sulfurous acid to degrade carbonates and bicarbonates may contribute to the ability of the present technology controlling pests. […] As referred to herein, the exhaust products include sulfur dioxide and possibly other sulfur-containing substances that are obtained directly from a sulfur burner that burns elemental sulfur.
Treatment can provide clarified water from murky water having one or more of these aquatic pests.

anatoxin-a = assay: Cyanotoxin in treated Daybreak reservoirs; set-up: species or system cyanobacteria; conditions: Daybreak reservoirs (surge pond), pH maintained between 6.8-7
Source text: as §1

fish or other animals = type: in vivo; conditions: Daybreak reservoirs, pH maintained between 6.8-7
Source text: as §1

Asiatic clams = assay: Open-water pond treatment, mortality of Asiatic clams; type: in vivo
Procedure: as §2, §3

[1] = inoculated aquatic pond, pH about 6.0-about 6.5, no time stated

Molecule | kill of clams (clams) | time to removal of algae (algae) [days] | time until free of cyanobacteria (cyanobacteria; Daybreak reservoirs (surge pond), pH maintained between 6.8-7) [weeks] | detection of cyanobacteria after treatment (cyanobacteria; Daybreak reservoirs, untreated Jordan Canal areas still positive) | cyanobacteria in waterways downstream from the Daybreak reservoirs (cyanobacteria; downstream of treated reservoirs) | kill of cyanobacteria (cyanobacteria; pH of the treated water between 6-7, more preferably 6.8-7) [%] | kill of bryozoa (bryozoa; in 48 hours, open water, pH between 6.0 and 6.5) | kill of bryozoan (bryozoa; [1]) | kill of zebra mussels (zebra mussels; in 5 days, open water, pH between 6.0 and 6.5) [%] | kill of zebra mussels (zebra mussels; [1]) | effect on algae, bacteria, zebra mussel, Asian clam, apple snail, American crab, crayfish, Bryozoans (aquatic pests; in vivo) | kill rates in the aquatic pests (aquatic pests; open and contained water) [%] | effectiveness in controlling aquatic pests versus sulfuric acid (aquatic pests; pH reduced to 7.1 with sulfurous acid versus pH 3.0 with sulfuric acid) | aquatic pest count (aquatic pests; preliminary testing, applied to water having aquatic pest) | time until free of anatoxin-a (anatoxin-a) [weeks] | kill of non-target fish or other animals (fish or other animals) | kill of Asiatic clams (Asiatic clams; in less than one month, open water, pH between 6.0 and 6.5) [%] | kill of Asiatic clams (Asiatic clams; [1])
O=S(=O)(O)O [sulfuric acid] | kill the clams, but only in some cases |  |  |  |  |  |  |  |  |  |  |  |  |  |  |  |  | 
sulfurous acid |  | 15 | ≤ 2 | non-detect | free of cyanobacteria | 100 | about 100% | about 100% | 100 | about 100% | reduce | 100 | more effective | reduces the aquatic pest count | ≤ 2 | no fish or other animals were determined to be killed | 100 | about 100%

From patent publication US11174177B2, “Systems and methods for controlling aquatic pests with sulfurous acid” (priority 2017, dated 2021)
